According to publication PMC12535076, “Neurotherapeutic effects of Vutiglabridin as a Paraoxonase-2 modulator in preclinical models of Parkinson’s disease” (Molecular Neurodegeneration, 2025):
Blank lines part the entries; values can stand above or below the molecule they belong to.

Assays:
MAO-B [1] = molecular target: T1, MAO-B (Homo sapiens, UniProt P27338); assay: HRP/Amplex red based MAO-B enzyme activity assay; type: biochemical; details: read-out: IC50, MAO-B assay, HRP/AR method
T1 sequence (P27338 1-520): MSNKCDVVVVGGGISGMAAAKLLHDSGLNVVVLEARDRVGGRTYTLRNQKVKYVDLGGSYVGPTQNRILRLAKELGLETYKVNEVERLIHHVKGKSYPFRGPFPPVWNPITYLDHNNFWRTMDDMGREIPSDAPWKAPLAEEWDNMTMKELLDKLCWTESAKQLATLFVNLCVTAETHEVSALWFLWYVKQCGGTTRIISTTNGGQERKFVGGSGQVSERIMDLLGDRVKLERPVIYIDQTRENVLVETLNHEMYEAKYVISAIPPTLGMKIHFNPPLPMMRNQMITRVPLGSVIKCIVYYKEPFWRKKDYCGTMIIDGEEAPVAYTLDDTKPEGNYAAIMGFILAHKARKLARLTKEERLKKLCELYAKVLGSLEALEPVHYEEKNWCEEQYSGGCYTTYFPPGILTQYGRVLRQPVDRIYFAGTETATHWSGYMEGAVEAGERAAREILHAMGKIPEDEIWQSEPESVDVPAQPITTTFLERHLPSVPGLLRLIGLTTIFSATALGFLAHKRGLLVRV
Protocol: (§1) MAO-A or MAO-B enzyme solutions were prepared by diluting 10 µL of a 2.5 mg/mL MAO-A or MAO-B stock into 10 mL of 50 mM sodium phosphate buffer (pH 7.4). A substrate assay mixture was then prepared by combining benzylamine (for MAO-B) or tyramine (for MAO-A) from a 100 mM stock (200 µL in 10 mL phosphate buffer, final concentration 1 mM) with 100 µL of a 20 mM AR reagent stock (final concentration 0.1 mM) and 100 µL of a 200 U/mL HRP stock (final concentration 1 U/mL) in 10 mL phosphate buffer. […] Next, 50 µL of the substrate assay mixture was added, and the reaction was carried out at 37 °C for 60 min. The production of resorufin was quantified by fluorescence measurement (excitation at 540 nm and emission at 580 nm).

MAO-B [2] = molecular target: T1, MAO-B; assay: ROS Glo based MAO-B enzyme activity assay; type: biochemical; details: read-out: IC50, MAO-B assay, ROS-Glo method
Protocol: An enzyme solution was prepared by diluting 10 µL of a 2.5 mg/mL MAO-A or MAO-B stock in 10 mL of 50 mM sodium phosphate buffer (pH 7.4). A substrate solution was prepared by diluting 200 µL of a 100 mM benzylamine (or tyramine) stock in 10 mL phosphate buffer to achieve a final concentration of 1 mM. For each 96-well plate experiment, 12.5 µL of a 1× H2O2 probe solution was added to 1 mL of the probe dilution buffer from the ROS Glo™ kit. Separately, 40 µL of cysteine and enhancer were diluted into 4 mL of Luciferin solution. In each well, 49 µL of the enzyme solution was dispensed, followed by 1 µL of the test compound, and incubated for 30 min. […] Next, 10 µL of the H2O2 probe solution was added and incubated for 15 min. […] Luminescence was subsequently recorded using a microplate luminescence reader (SpectraMax i3, Molecular Devices).

MAO-A [3] = molecular target: T2, MAO-A (Homo sapiens, UniProt P21397); assay: HRP/Amplex red based MAO-A enzyme activity assay; type: biochemical; details: read-out: IC50, MAO-A assay, HRP/AR method
T2 sequence (P21397 1-527): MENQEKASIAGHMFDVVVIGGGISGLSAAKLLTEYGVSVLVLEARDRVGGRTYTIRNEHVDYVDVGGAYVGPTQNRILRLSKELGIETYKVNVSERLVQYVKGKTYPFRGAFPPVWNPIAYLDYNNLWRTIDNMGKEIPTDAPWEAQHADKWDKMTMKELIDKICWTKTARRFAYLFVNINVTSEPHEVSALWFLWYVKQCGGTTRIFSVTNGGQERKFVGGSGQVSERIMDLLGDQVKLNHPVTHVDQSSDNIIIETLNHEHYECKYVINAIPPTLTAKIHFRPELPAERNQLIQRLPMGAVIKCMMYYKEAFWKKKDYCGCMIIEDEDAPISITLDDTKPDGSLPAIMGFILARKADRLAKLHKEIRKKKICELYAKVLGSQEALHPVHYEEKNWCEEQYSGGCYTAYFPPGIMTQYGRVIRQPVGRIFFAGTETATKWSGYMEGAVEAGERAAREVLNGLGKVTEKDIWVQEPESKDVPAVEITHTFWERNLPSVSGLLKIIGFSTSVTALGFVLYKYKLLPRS
Protocol: as §1

MAO-A [4] = molecular target: T2, MAO-A; assay: ROS Glo based MAO-A enzyme activity assay; type: biochemical; details: printed as 'separate MAO-B assay' within the MAO-A panel (b); read-out: IC50, ROS-Glo method, panel (b)
Protocol: An enzyme solution was prepared by diluting 10 µL of a 2.5 mg/mL MAO-A or MAO-B stock in 10 mL of 50 mM sodium phosphate buffer (pH 7.4). A substrate solution was prepared by diluting 200 µL of a 100 mM benzylamine (or tyramine) stock in 10 mL phosphate buffer to achieve a final concentration of 1 mM. For each 96-well plate experiment, 12.5 µL of a 1× H2O2 probe solution was added to 1 mL of the probe dilution buffer from the ROS Glo™ kit. Separately, 40 µL of cysteine and enhancer were diluted into 4 mL of Luciferin solution. In each well, 49 µL of the enzyme solution was dispensed, followed by 1 µL of the test compound, and incubated for 30 min. Then, 49 µL of the substrate solution was added, and the reaction proceeded at 37 °C for 60 min. Next, 10 µL of the H2O2 probe solution was added and incubated for 15 min. Subsequently, 40 µL of a luciferin solution containing cysteine and an enhancer was added, followed by an additional 30-minute incubation at 37 °C. Luminescence was subsequently recorded using a microplate luminescence reader (SpectraMax i3, Molecular Devices).

[5] = test system: MPTP-injected C57BL/6 mice; assay: MPTP-injected sub-acute PD mouse model (pole test, rotarod, TH immunohistochemistry); type: in vivo
Protocol: Animals were allowed at least 1 week of acclimatization before being subjected to the study and were housed in a regulated environment with a 12-h/12-h light/dark cycle. Food and water were provided ad libitum. The animal experiment was carried out in accordance with the National Institutes of Health Guide for the Care and Use of Laboratory Animals (NIH Publications No. 80–23; revised 1996). All procedures for handling mice were carried out in accordance with “Principles of Laboratory Animal Care” and the Animal Care and Use guidelines of Kyung Hee University, Seoul, Korea (KHSASP-20-163).
MPTP was dissolved in distilled water and injected intraperitoneally for five days from day 10 of the 21-day experiment period. Vuti or rasagiline was administered via oral gavage for 21 days. Vehicles for both Vuti and MPTP (distilled water) were administered to all mice. Mice were randomly divided for all studies. For the first set of studies shown in Fig. 3, each group consisted of 5 animals.
To determine forelimb and hindlimb motor coordination and balance, we performed the rotarod test as described previously. Also, the pole test was performed to measure bradykinesia. For the rotarod test, the animals were pre-trained on the rotating bar of a rotarod unit set (LE 8500, Letica, Spain) on days 18 and 19 before the test on day 20. During pre-training, three trials per day were performed (5 rpm rotation speed on the first day, 15 rpm rotation speed on the second day). Mice were kept on the rotating bar (7.3-cm diameter) for 5 min on each trial. On day 20, the time spent on the rotating bar at 20 rpm, which was defined as the latent period, was recorded. Performance was recorded as 300 s if the latent period exceeded 300 s. Mice had at least 5 min of rest between trials to reduce stress and fatigue. Each animal underwent three test trials, and the mean of the test results was subjected to statistical analysis. For the pole test, mice were held on the top of the pole (diameter 8 mm, height 55 cm, with a rough surface). The time to land down and place four fee on the floor was recorded as the time for locomotion activity (T-LA).
On day 21, mice were anesthetized with sodium pentobarbital (50 mg/kg intraperitoneally) and transcardially perfused with saline containing 0.5% sodium nitrate and heparin (10 U/mL) and then fixed with 4% PFA in 0.1 M phosphate-buffer (PB, pH 7.2). Dissected brains were post-fixed overnight in buffered 4% PFA at 4 °C and stored in a 30% sucrose solution until they sank. Brains were cryosectioned into 30 μm thick coronal sections in a Cryostat (Microsystems AG, Leica, Wetzlar, Germany) and stored until use at 4℃ in a cryoprotectant (25% ethylene glycol, 25% glycerol, 0.2 M PB, and water). All sections were collected in six separate series and processed for immunostaining.
Free-floating brain sections were processed with the avidin-biotin peroxidase complex (ABC) complex (Vector Laboratories, Burlingame, CA, USA) method. Briefly, brain sections were incubated with primary rabbit anti-TH antibodies (1:1000; Pel-Freez Biologicals, Rogers, AR, USA) overnight at 4 °C, with biotinylated anti-rabbit IgG (1:400) for 1 h at room temperature, and then with the ABC solution (1:1:200) for 1 h at room temperature. The immunoperoxidase signals of TH was detected by incubating sections with 0.5 mg/ml 3,3′-diaminobenzidine (Sigma, St. Louis, MO, USA) in 0.1 M PB containing 0.003% H2O2. Stained brain sections were mounted on gelatin-coated slides and imaged under a bright-field microscope (Olympus Optical, Tokyo, Japan). TH-positivity in the ST was measured by the optical density of TH-positive fibers at x40 magnification using ImageJ software (National Institutes of Health, Bethesda, MD, USA). TH-positive cells in the SNpc in brain tissue Sect. (5 sections/series) were counted at x100 magnification as previously described. […]

[6] = MPTP mice, Vuti 1, 50, 100 mg/kg/day or rasagiline 0.1 mg/kg/day orally for 21 days

- IC50 (MAO-B [1]): 7.29 µM
- IC50 (MAO-B [2]): 15.4 µM
- IC50 (MAO-A [3]): 26.8 µM
- IC50 (MAO-A [4]): 12 µM
SMILES: CC1(C)C=Cc2c(ccc3c2OC[C@@H](c2ccc(O)cc2O)C3)O1 [Glabridin]

SMILES: CN1CC=C(c2ccccc2)CC1 [MPTP, 1-methyl-4-phenyl-1,2,3,6-tetrahydropyridine, reference compound]
- latency time to reach the floor (T-LA) in the pole test ([5]; MPTP 30 mg/kg/day i.p. for 5 days, no drug, vs 5.2 ± 0.9 s vehicle-only): 9.6 ± 2.1 s
- latency to fall in the rotarod test ([5]; MPTP 30 mg/kg/day i.p. for 5 days, no drug, vs 196.4 ± 77.3 s vehicle-only): 63.5 ± 34.5 s

SMILES: C#CCN[C@@H]1CCc2ccccc21 [rasagiline, Rasagiline, reference compound]
- effect on T-LA in the pole test [5, 6]: significantly normalized
- effect on latency to fall in the rotarod test [5, 6]: significantly normalized
